We go through six molecules from US20020061840A1, “Tripeptide compounds useful as selective inhibitors of aminopeptidase A and corresponding pharmaceutical compositions” (priority 2000, published 2002).

The term Ki denotes the dissociation constant of the complex between target and ligand, obtained from inhibition or displacement.

In this assay the target is T1, Aminopeptidase N (Sus scrofa, UniProt P15145).
T1 construct: Aminopeptidase N purified from pig's kidney; purchased Böehringer Mannheim (Meylan, France); host or cells: pig's kidney
T1 sequence (P15145 1-963): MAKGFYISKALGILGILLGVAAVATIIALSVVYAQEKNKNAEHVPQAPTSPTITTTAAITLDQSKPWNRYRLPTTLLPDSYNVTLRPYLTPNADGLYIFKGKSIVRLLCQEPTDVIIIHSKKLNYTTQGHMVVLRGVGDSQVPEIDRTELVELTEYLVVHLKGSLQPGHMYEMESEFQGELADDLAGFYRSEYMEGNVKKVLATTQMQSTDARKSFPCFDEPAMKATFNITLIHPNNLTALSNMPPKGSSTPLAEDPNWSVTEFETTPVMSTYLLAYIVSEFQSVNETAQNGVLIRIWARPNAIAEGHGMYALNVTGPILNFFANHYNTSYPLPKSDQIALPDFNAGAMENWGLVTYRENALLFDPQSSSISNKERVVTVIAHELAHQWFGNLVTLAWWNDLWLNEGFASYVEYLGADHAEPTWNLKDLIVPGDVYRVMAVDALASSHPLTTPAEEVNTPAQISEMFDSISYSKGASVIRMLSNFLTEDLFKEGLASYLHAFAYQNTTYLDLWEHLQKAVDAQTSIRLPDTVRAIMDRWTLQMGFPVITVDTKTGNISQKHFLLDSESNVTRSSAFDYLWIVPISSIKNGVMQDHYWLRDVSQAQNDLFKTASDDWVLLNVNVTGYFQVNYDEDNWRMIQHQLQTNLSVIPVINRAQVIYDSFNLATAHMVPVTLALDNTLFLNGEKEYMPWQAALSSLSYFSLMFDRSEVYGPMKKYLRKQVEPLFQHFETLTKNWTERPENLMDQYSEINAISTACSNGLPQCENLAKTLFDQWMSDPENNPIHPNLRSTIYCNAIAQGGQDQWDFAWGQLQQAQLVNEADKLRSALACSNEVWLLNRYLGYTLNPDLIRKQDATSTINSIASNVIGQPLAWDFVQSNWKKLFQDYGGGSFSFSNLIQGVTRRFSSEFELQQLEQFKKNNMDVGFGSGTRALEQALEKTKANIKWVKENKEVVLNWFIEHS
The assay can be described thus: In vitro inhibiting power on aminopeptidase N (Ala-Na substrate). The conditions noted are these: APN purified from pig's kidney, 200 μM Ala-Na, 37° C., Tris HCl pH 7.4. Format: biochemical. As to the method: b)) In vitro study of the inhibiting power of the synthesised compounds on aminopeptidase N.
1°) Source of the Enzyme.
Aminopeptidase N purified from pig's kidney is marketed by Böehringer Mannheim (Meylan, France).
The APN is incubated for 10 min at 37° C. in the absence or in the presence of increasing concentrations of inhibitors in a total volume of 100 μl in Tris HCl buffer (50 mM, pH =7.4. 200 μM of Ala-Na are added and the whole thing is incubated for 30 min at 37° C. The reaction is stopped by the addition of 10 μl of CH3COO—Na 1M (pH=4.2). The absorption is measured at 400 nm and compared with that of a standard range of 2-naphthyiamine.

Some results are limits rather than exact numbers.

On to `CC[C@H](C)[C@H](NC(=O)[C@@H](S)[C@H](N)CCC(=O)O)C(=O)N1CC[C@@H](C(=O)O)[C@H]1C(=O)O` [Example 3A, [[(2S ,3R)-3-amino-5-carboxy-2-mercapto]pentanoyl]-LIIe-L.(3R)(3-COOH)Pro-OH], for which the Ki was > 5 µM.

Take `CCC(C)C(NC(=O)C(S)C(N)CCP(=O)(O)O)C(=O)NC(CCC(=O)O)C(=O)O` (single isomer, unassigned) [Example 4B]: the Ki is > 5 µM.

Take `CCC(C)C(NC(=O)C(S)C(N)CCS(=O)(=O)O)C(=O)NC(CCC(=O)O)C(N)=O` (single isomer, unassigned) [Example 8B]: the Ki was > 50 µM.

On to `CC[C@H](C)[C@H](NC(=O)[C@H](S)[C@H](N)CCC(=O)O)C(=O)N1CC[C@@H](C(=O)O)[C@H]1C(=O)O` [Example 3B, [[(2R,3R), 3-amino-5-carboxy-2-mercapto]-pentanoyl]-L.IIe-L.(3R)(3-COOH)Pro-OH], for which the Ki is > 5 µM.

On to `CCC(C)C(NC(=O)C(S)C(N)CCP(=O)(O)O)C(=O)NC(CCC(=O)O)C(=O)O` (single isomer, unassigned) [Example 4A], for which the Ki was > 5 µM.

Take `CCC(C)C(NC(=O)C(S)C(N)CCS(=O)(=O)O)C(=O)NC(CCC(=O)O)C(N)=O` (single isomer, unassigned) [Example 8A]: the Ki is > 50 µM.
